Laboratory results: patent US10934304B2, “Spirocyclic compounds” (Recurium IP Holdings, LLC, priority 2016, dated 2021)

How the values were obtained:
A375 (melanoma) cells = experiment: Proliferation Assay (CellTiter-Glo); assay type: cell-based; details: 3 days incubation, CellTiter-Glo luminescence
Experimental: A375 (melanoma), Colo-205 (colon cancer), Miapaca (pancreatic), HPAFII (pancreatic), sNF02.0 (neurofibromatosis type 1), sNF96.2 (neurofibromatosis type 1) and 8505 (Thyroid) cells were grown and maintained in RPMI-1640 medium containing 100 U/mL penicillin-streptomycin and 10% fetal bovine serum. Cells were in growth medium in 96-well opaque-walled clear bottom plates and incubated in the CO2 incubator overnight before treatment. Cells were treated with compounds diluted in DMSO and a 10 point 3-fold serial dilutions were done. Plates were placed in 37° C., 5% CO2 to incubate for 3 days. Before they were developed by adding 100 μL of CellTiter-Glo reagent (Promega) to the assay plate, plates were shaken briefly for 2 mins and allowed to incubate at room temperature for 10 mins. The bottom of the plates was pasted with white back seal and luminescence was recorded with Flexstation3 with setting of luminescence, integration time 500 ms.
Compounds of Formula (I), (II) and (III) are active in this assay as noted in Table 2.

ERK2 = ERK2 (Homo sapiens (Human), UniProt P28482); experiment: Active ERK1 and ERK2 Kinase Assay (Mobility Shift Assay); assay type: biochemical; details: activated ERK2, Mobility Shift Assay
Experimental: Activated ERK1 and ERK2 activity was determined in a Mobility Shift Assay (MSA) format as follows: Compound and kinase solution were prepared with assay buffer (20 mM HEPES, 0.01% Triton X-100, 2 mM DTT, pH7.5) and mixed and incubated in for 30 mins at rt. ERK1 & ERK2 were then activated by the addition of F1-Substrate, ATP and metal solution and incubated for 1 h at rt. After 1 h, the reaction was terminated by the addition of […] of Termination Buffer (QuickScout Screening Assist MSA; Carna Biosciences) to the well. The reaction mixture was applied to LabChip™ system (PerkinElmer), and the product and substrate peptide peaks were separated, analyzed and quantitated. The kinase reaction is evaluated by the product ratio calculated from peak heights of product (P) and substrate(S) peptides (P/(P+S)).

ERK2, sequence (P28482 whole entry): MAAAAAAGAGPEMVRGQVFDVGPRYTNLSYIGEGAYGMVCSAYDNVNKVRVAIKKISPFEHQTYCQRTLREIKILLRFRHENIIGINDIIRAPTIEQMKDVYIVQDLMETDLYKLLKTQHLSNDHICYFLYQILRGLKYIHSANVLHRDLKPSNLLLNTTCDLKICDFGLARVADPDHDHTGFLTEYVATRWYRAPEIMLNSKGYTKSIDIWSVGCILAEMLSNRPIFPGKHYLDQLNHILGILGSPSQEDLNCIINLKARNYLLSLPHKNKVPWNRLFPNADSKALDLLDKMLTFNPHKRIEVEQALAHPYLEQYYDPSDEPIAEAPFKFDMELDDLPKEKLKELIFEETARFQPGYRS

IC50 (A375 (melanoma) cells) [nM]	IC50 (A375 (melanoma) cells; Homo sapiens, A-375, 72 h) [nM]	IC50 (ERK2) [nM]	SMILES
≥ 1000	–	–	CC(C)Oc1ccc(-c2n[nH]c3ccc(N4CCC5(CCN(C(C)C(=O)N6CC=C(c7ncc(-c8ncn(C)n8)s7)CC6)C5)C4=O)nc23)cn1 (mixture of isomers) [Example 95]
–	≤ 500	≤ 50	COc1ccc(-c2n[nH]c3ccc(N4CC[C@]5(CCN(CC(=O)N6CC=C(c7ncc(-c8ncn(C)n8)s7)CC6)C5)C4=O)nc23)cn1 [Example 36]
≤ 500	–	–	CC(C)Oc1ccc(-c2n[nH]c3ccc(N4CC[C@]5(CCN(CC(=O)N6CCN(c7ncc(-c8ncn(C)n8)s7)CC6)C5)C4=O)nc23)cn1 [Example 87]
≤ 500	–	≤ 50	COc1ccc(-c2n[nH]c3ccc(N4CC[C@]5(CCN(CC(=O)N6CC=C(c7ccc(-c8ncn(C)n8)cc7)CC6)C5)C4=O)nc23)cc1 [Example 63]
≥ 1000	–	–	CC(C(=O)N1CC=C(c2ncc(-c3ncn(C)n3)s2)CC1)N1CCC2(CCN(c3ccc4[nH]nc(-c5ccc(F)cc5)c4n3)C2=O)C1 (mixture of isomers) [Example 96]
–	≤ 500	–	CC(C)Oc1ccc(-c2n[nH]c3ccc(N4CC[C@]5(CCN(CC(=O)N6CC=C(c7ccc(-c8ncn(C)n8)cn7)CC6)C5)C4=O)nc23)cc1 [Example 104]
–	≤ 500	–	COc1cc(-c2n[nH]c3ccc(N4CC[C@]5(CCN(CC(=O)N6CC=C(c7ccc(-c8ncn(C)n8)cc7)CC6)C5)C4=O)nc23)ccc1OC(C)C [Example 107]
–	500 to 1000	–	CC(C)Oc1ccc(-c2n[nH]c3ccc(N4CC[C@]5(CCN(CC(=O)N6CC=C(c7ccc(-c8ncn(C)n8)nc7)CC6)C5)C4=O)nc23)cc1 [Example 105]
≤ 500	–	–	CC(C)Oc1ccc(-c2n[nH]c3ccc(N4CC[C@]5(CCN(CC(=O)N6CC=C(c7ccc(-c8ncn(CCN(C)C)n8)cc7)CC6)C5)C4=O)nc23)cn1 [Example 97]
–	≤ 500	–	Cn1cnc(-c2cnc(C3=CCN(C(=O)CN4CC[C@]5(CCN(c6ccc7[nH]nc(C8CC8)c7n6)C5=O)C4)CC3)s2)n1 [Example 113]
≤ 500	–	–	Cn1cnc(-c2cnc(C3=CCN(C(=O)CN4CC[C@]5(CCN(c6ccc7[nH]nc(-c8ccc(OC9CCC9)nc8)c7n6)C5=O)C4)CC3)s2)n1 [Example 90]
≤ 500	–	–	CC(C)Oc1ccc(-c2n[nH]c3ccc(N4CC[C@]5(CCN(CC(=O)N6CC=C(c7ncc(-c8ncn(C)n8)s7)CC6)C5)C4=O)nc23)cc1F [Example 118]
≤ 500	–	–	CC(C)Oc1ccc(-c2n[nH]c3ccc(N4CC[C@]5(CCN(CC(=O)N6CC=C(c7ncc(-c8cn(C)cn8)s7)CC6)C5)C4=O)nc23)cn1 [Example 99]
≤ 500	–	–	CC(C)Oc1ccc(-c2n[nH]c3ccc(N4CC[C@]5(CCN(CC(=O)N6CC=C(c7ccc(-c8ncn(C)n8)cc7)CC6)C5)C4=O)nc23)cc1F [Example 116]
–	≤ 500	–	CC(C)n1cc(-c2n[nH]c3ccc(N4CC[C@]5(CCN(CC(=O)N6CC=C(c7ccc(-c8ncn(C)n8)cc7)CC6)C5)C4=O)nc23)ccc1=O [Example 111]
≤ 500	–	–	CCn1cnc(-c2cnc(C3=CCN(C(=O)CN4CC[C@]5(CCN(c6ccc7[nH]nc(-c8ccc(OC(C)C)nc8)c7n6)C5=O)C4)CC3)s2)n1 [Example 88]
–	≤ 500	–	COc1cc(-c2n[nH]c3ccc(N4CC[C@]5(CCN(CC(=O)N6CC=C(c7ncc(-c8ncn(C)n8)s7)CC6)C5)C4=O)nc23)ccc1OC(C)C [Example 108]
≤ 500	–	–	CC(C)Oc1ccc(-c2n[nH]c3ccc(N4CC[C@]5(CCN(CC(=O)N6CCC(c7ncc(-c8ncn(C)n8)s7)CC6)C5)C4=O)nc23)cn1 [Example 86]
≤ 500	–	–	CC(C)Oc1ccc(-c2n[nH]c3ccc(N4CCC5(CCN(CC(=O)N6CC=C(c7ccc(-c8ncn(C)n8)cc7)CC6)C5)C4=O)nc23)cn1 (stereo not shown) [Example 83]
–	≤ 500	–	CC(C)Oc1ccc(-c2n[nH]c3ccc(N4CC[C@]5(CCN(CC(=O)N6CC=C(c7ncc(-c8ncn(C)n8)s7)CC6)C5)C4=O)cc23)cc1 [Example 110]
≥ 1000	–	–	CC(C)Oc1ccc(-c2n[nH]c3ccc(N4CC[C@]5(CCN(CC(=O)N6CC=C(c7ccc(-c8cn(C)cn8)cc7)CC6)C5)C4=O)nc23)cn1 [Example 98]
–	≤ 500	–	Cc1ncc(-c2n[nH]c3ccc(N4CC[C@]5(CCN(CC(=O)N6CC=C(c7ccc(-c8ncn(C)n8)cc7)CC6)C5)C4=O)nc23)s1 [Example 30]
≤ 500	–	–	CC(C)Oc1ccc(-c2n[nH]c3ccc(N4CC[C@]5(CCN(CC(=O)N6CC=C(c7ncc(-c8ncn(C)n8)s7)CC6)C5)C4=O)nc23)cc1 [Example 94]
–	≤ 500	–	CC(C)Oc1ccc(-c2n[nH]c3ccc(N4CC[C@]5(CCN(CC(=O)N6CC=C(c7ccc(-c8ncn(C)n8)cc7)CC6)C5)C4=O)nc23)cc1 [Example 103]

The next lines start with the compound.

SMILES	IC50 (A375 (melanoma) cells) [nM]	IC50 (A375 (melanoma) cells; Homo sapiens, A-375, 72 h) [nM]	IC50 (ERK2) [nM]
Cn1cnc(-c2ccc(C3=CCN(C(=O)CN4CC[C@]5(CCN(c6ccc7[nH]nc(-c8cnc(C#N)c(C(F)(F)F)c8)c7c6)C5=O)C4)CC3)cc2)n1 [Example 10]	–	500 to 1000	≤ 50
COc1ccc(-c2n[nH]c3ccc(N4CC[C@]5(CCN(CC(=O)N6CCN(c7ccc(-c8ncn(C)n8)cn7)CC6)C5)C4=O)nc23)cn1 [Example 46]	≤ 500	–	≤ 50
Cn1cnc(-c2ccc(C3=CCN(C(=O)CN4CC[C@]5(CCN(c6ccc7[nH]nc(-c8ccc(C#N)cc8)c7n6)C5=O)C4)CC3)cc2)n1 [Example 27]	–	≤ 500	≤ 50
CC(C)Oc1ccc(-c2n[nH]c3ccc(N4CC[C@]5(CCN(CC(=O)N6CCN(c7ccc(-c8ncn(C)n8)cc7)C[C@H]6C)C5)C4=O)nc23)cn1 [Example 114]	–	≥ 1000	–
COc1ccc(F)c(-c2n[nH]c3ccc(N4CC[C@]5(CCN(CC(=O)N6CCC(c7ccc(-c8ncn(C)n8)cc7)CC6)C5)C4=O)cc23)n1 [Example 75]	≤ 500	–	–
Cn1cnc(-c2cnc(C3=CCN(C(=O)CN4CC[C@]5(CCN(c6ccc7[nH]nc(-c8ccc(F)cc8)c7c6)C5=O)C4)CC3)s2)n1 [Example 17]	≤ 500	–	≤ 50
Cn1cnc(-c2ccc(C3=CCN(C(=O)CN4CC[C@]5(CCN(c6ccc7[nH]nc(C89CC(C8)C9)c7c6)C5=O)C4)CC3)cc2)n1 [Example 72, (S)-2-(3-(Bicyclo[1.1.1]pentan-1-yl)-1H-indazol-5-yl)-7-(2-(4-(4-(1-methyl-1H-1,2,4-triazol-3-yl)phenyl)-5,6-dihydropyridin-1(2H)-yl)-2-oxoethyl)-2,7-diazaspiro[4.4]nonan-1-one]	–	500 to 1000	≤ 50
CC(C)Oc1ccc(-c2n[nH]c3ccc(N4CC[C@]5(CCN(CC(=O)N6CC=C(c7ccc(-c8ncn(C)n8)cc7)CC6)C5)C4=O)cc23)cc1 [Example 109]	–	≤ 500	–
COc1ncc(-c2n[nH]c3ccc(N4CC[C@]5(CCN(CC(=O)N6CC=C(c7ccc(-c8ncn(C)n8)cc7)CC6)C5)C4=O)cc23)cc1C(F)(F)F [Example 8]	–	≥ 1000	≤ 50
CC(C)Oc1ccc(-c2n[nH]c3ccc(N4CC[C@]5(CCN(CC(=O)N6CC=C(c7ccc(-c8ncn(C)n8)c(F)c7)CC6)C5)C4=O)nc23)cc1F [Example 117]	≤ 500	–	–
Cn1cnc(-c2ccc(C3=CCN(C(=O)CN4CC[C@]5(CCN(c6ccc7[nH]nc(-c8ccc(F)c(N9CCCC9)n8)c7c6)C5=O)C4)CC3)cc2)n1 [Example 119]	500 to 1000	–	–
CC(C)Oc1ccc(-c2n[nH]c3ccc(N4CCC5(CCN(CC(=O)N6CCN(c7ccc(-c8ncn(C)n8)cc7)CC6C)C5)C4=O)nc23)cn1 (mixture of isomers) [Example 85]	≤ 500	–	–
O=C(Nc1ccc2[nH]nc(-c3ccncc3)c2c1)[C@@H]1CCN(CC(=O)N2CCN(c3ccc(-c4ncccn4)cc3)CC2)C1 [SCH772984, reference compound]	–	≤ 500	–
CC(C)Nc1cc(-c2c[nH]c(C(=O)N[C@H](CO)c3cccc(Cl)c3)c2)c(Cl)cn1 [BVD-523, reference compound]	–	≤ 500	–
Cn1nccc1Nc1nccc(-c2ccn([C@H](CO)c3ccc(Cl)c(F)c3)c(=O)c2)n1 [GDC-0994, reference compound]	–	500 to 1000	–
CC(C)Oc1ccc(-c2n[nH]c3ccc(N4CC[C@]5(CCN(CC(=O)N6CCN(c7ncc(-c8ncn(C)n8)s7)CC6)C5)C4=O)nc23)cc1 [Example 112]	–	≤ 500	–
Cc1n[nH]c2ccc(-c3n[nH]c4ccc(N5CC[C@]6(CCN(CC(=O)N7CC=C(c8ccc(-c9ncn(C)n9)cc8)CC7)C6)C5=O)nc34)cc12 [Example 100]	≤ 500	–	–
CC(C)Oc1cnc(-c2n[nH]c3ccc(N4CC[C@]5(CCN(CC(=O)N6CC=C(c7ccc(-c8ncn(C)n8)cc7)CC6)C5)C4=O)cc23)c(F)c1 [Example 78]	≥ 1000	–	–
CC(C)Oc1ccc(-c2n[nH]c3ccc(N4CC[C@]5(CCN(CC(=O)N6CCN(c7ccc(-c8ncn(C)n8)cc7)C[C@@H]6C)C5)C4=O)nc23)cn1 [Example 115]	–	≤ 500	–
Cc1noc2ccc(-c3n[nH]c4ccc(N5CC[C@]6(CCN(CC(=O)N7CC=C(c8ccc(-c9ncn(C)n9)cc8)CC7)C6)C5=O)nc34)cc12 [Example 101]	–	≤ 500	–
